# ChEMBL document CHEMBL2311503, “Synthesis and anti-angiogenic activity of benzothiazole, benzimidazole containing phthalimide derivatives” (Bioorg Med Chem Lett, 2013)
# Activity calls are given as the source filed them. The calls are words filed in the database; no cut-off is given here.
# Species: Gallus gallus
# Test: Antiangiogenic activity in chicken embryo chorioallantoic membrane assessed as inhibition of growth of new vessels proximity at 10 uM after 6 hrs by CAM assay
# Type: functional, tissue-based
row,SMILES,inhibition
1,O=C1c2ccccc2C(=O)N1c1nc2ccccc2[nH]1,Active
2,Cc1ccc2c(c1)C(=O)N(c1nc3ccccc3s1)C2=O,Active
3,O=C1c2ccccc2C(=O)N1c1nc2ccccc2s1,Active
4,O=C1c2ccccc2C(=O)N1c1cccc2nsnc12,Active
5,O=C1c2ccccc2C(=O)N1c1ccc2ncsc2c1,Active
